IC50 data for 21 compounds are collected here from patent publication US10626112B2, “Heterocyclic sulfonamide derivative and medicine comprising same” (EA PHARMA CO., LTD., priority 2014, dated 2020).

human TRPA1, sequence (O75762 whole entry): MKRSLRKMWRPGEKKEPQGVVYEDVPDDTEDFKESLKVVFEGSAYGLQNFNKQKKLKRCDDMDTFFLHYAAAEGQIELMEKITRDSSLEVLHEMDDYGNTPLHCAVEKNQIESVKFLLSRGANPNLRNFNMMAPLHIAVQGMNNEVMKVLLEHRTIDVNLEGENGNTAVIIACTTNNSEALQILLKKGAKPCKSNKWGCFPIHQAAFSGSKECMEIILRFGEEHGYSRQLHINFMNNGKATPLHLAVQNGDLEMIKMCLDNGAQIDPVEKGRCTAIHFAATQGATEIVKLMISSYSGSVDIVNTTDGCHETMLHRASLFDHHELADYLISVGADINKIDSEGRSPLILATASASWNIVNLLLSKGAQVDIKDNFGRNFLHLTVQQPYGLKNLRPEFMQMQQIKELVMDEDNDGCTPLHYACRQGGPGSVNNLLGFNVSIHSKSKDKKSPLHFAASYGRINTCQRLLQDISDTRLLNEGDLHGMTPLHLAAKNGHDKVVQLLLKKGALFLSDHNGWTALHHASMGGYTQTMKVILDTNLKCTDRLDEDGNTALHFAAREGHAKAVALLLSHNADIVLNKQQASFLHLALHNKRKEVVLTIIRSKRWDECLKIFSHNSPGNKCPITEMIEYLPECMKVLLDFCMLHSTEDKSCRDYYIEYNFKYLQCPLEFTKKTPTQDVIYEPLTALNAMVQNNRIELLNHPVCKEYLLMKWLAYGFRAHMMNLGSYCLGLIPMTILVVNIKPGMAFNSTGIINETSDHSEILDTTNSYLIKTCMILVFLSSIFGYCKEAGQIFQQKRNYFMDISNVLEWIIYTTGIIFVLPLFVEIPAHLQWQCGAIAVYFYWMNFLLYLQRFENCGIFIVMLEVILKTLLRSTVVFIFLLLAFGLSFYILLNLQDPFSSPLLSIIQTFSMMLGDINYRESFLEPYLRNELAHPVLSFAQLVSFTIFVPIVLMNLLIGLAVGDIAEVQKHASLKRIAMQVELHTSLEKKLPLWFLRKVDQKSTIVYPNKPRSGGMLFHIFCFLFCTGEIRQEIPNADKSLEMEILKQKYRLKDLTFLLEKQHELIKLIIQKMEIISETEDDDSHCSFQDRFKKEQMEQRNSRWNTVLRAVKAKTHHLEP

The test addresses human TRPA1 (Homo sapiens (Human), UniProt O75762). Kind of test: Measurement of TRPA1 antagonist activity (1): intracellular calcium increase. Format: cell-based. The settings on record: 293T cells transfected with human TRPA1 expression plasmid; allylisothiocyanate 20 μM stimulation; intracellular calcium fluorescence; read-out: hTRPA1 IC50. An outline of the steps:
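HEK293T cells transiently transfected with full-length human TRPA1, loaded with Calcium4 dye in HBSS/20 mM HEPES pH 7.2. Test compound preincubated 10 min, then allylisothiocyanate added at 20 μM final and fluorescence change followed for 5 min. IC50 from sigmoid fit of percent inhibition relative to agonist and buffer controls.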
For orientation: IC50 means the concentration that gives 50% inhibition. Take `O=C(NCc1cccc(OCc2ccc(C(F)(F)F)cn2)c1)[C@@H]1CCCN1S(=O)(=O)c1cc2ccccc2o1` [Example 291, (2S)-1-(benzofuran-2-ylsulfonyl)-N-[[3-[[5-(trifluoromethyl)-2-pyridyl]methoxy]phenyl]methyl]pyrrolidine-2-carboxamide]: the concentration for half-maximal inhibition (IC50) is 28 nM.

Take `CNc1ccccc1-c1cc(CNC(=O)[C@@H]2CCCN2S(=O)(=O)c2cc3ccccc3o2)ccn1` [Example 292, (2S)-1-(benzofuran-2-ylsulfonyl)-N-[[2-[2-(methylamino)phenyl]-4-pyridyl]methyl]pyrrolidine-2-carboxamide]: the IC50 was found to be 580 nM.

Consider `N#Cc1ccc(-c2cc(CNC(=S)[C@@H]3CCCN3S(=O)(=O)c3cc4ccccc4o3)ccn2)cc1` [Example 293, (2S)-1-(benzofuran-2-ylsulfonyl)-N-[[2-(4-cyanophenyl)-4-pyridyl]methyl]pyrrolidine-2-carbothioamide], for which the IC50 is 3.1 nM.

For `O=C(NCc1ccnc(-c2cc(C(F)(F)F)n[nH]2)c1)[C@@H]1CCCN1S(=O)(=O)c1cc2ccccc2o1` [Example 294, (2S)-1-(benzofuran-2-ylsulfonyl)-N-[[2-[3-(trifluoromethyl)-1H-pyrazol-5-yl]-4-pyridyl]methyl]pyrrolidine-2-carboxamide], the IC50 is 170 nM.

For the compound `O=C(NCc1cccc(OS(=O)(=O)c2cc3cc(F)ccc3o2)c1)[C@@H]1CCCN1S(=O)(=O)c1cc2cc(F)ccc2o1` [Example 295, 5-fluorobenzofuran-2-sulfonic acid [3-[[[(2S)-1-(5-fluorobenzofuran-2-yl)sulfonylpyrrolidine-2-carbonyl]amino]methyl]phenyl]ester], the IC50 is 69 nM.

Turning to `O=C(NCc1cccc(Nc2ccc(C(F)(F)F)cc2)c1)[C@@H]1CCCN1S(=O)(=O)c1cc2cc(F)ccc2o1` [Example 296, (2S)-1-(5-fluorobenzofuran-2-yl)sulfonyl-N-[[3-[4-(trifluoromethyl)anilino]phenyl]methyl]pyrrolidine-2-carboxamide], the IC50 came out at 7.9 nM.

For `O=C(NCc1cccc(/C=C/c2ccc(C(F)(F)F)cc2)c1)[C@@H]1CCCN1S(=O)(=O)c1cc2cc(F)ccc2o1` [Example 297, (2S)-1-(5-fluorobenzofuran-2-yl)sulfonyl-N-[[3-[(E)-2-[4-(trifluoromethyl)phenyl]vinyl]phenyl]methyl]pyrrolidine-2-carboxamide], the half-inhibitory concentration (IC50) was determined as 7.5 nM.

Turning to `O=C(NCc1cccc(COc2ccc(C(F)(F)F)cc2)c1)[C@@H]1CCCN1S(=O)(=O)c1cc2ccccc2o1` [Example 298, (2S)-1-(benzofuran-2-ylsulfonyl)-N-[[3-[[4-(trifluoromethyl)phenoxy]methyl]phenyl]methyl]pyrrolidine-2-carboxamide], the IC50 worked out at 11 nM.

Consider `O=C(Nc1cccc(CNC(=O)[C@@H]2CCCN2S(=O)(=O)c2cc3ccccc3o2)c1)c1ccc(C(F)(F)F)cc1` [Example 300, (2S)-1-(benzofuran-2-ylsulfonyl)-N-[[3-[[4-(trifluoromethyl)benzoyl]amino]phenyl]methyl]pyrrolidine-2-carboxamide], for which the IC50 came out at 310 nM.

For the compound `C[C@H](NS(=O)(=O)c1cc2cnccc2o1)C(=O)NCc1cc(-c2ccc(C(F)(F)F)cc2)ncn1` [Example 301, (2S)-2-(furo[3,2-c]pyridin-2-ylsulfonylamino)-N-[[6-[4-(trifluoromethyl)phenyl]pyrimidin-4-yl]methyl]propanamide], the 50% inhibitory concentration (IC50) was 30 nM.

For `C[C@H](NS(=O)(=O)c1cc2cnccc2o1)C(=O)NCc1ccnc(-c2ccc(C(F)(F)F)cc2O)c1` [Example 303, (2S)-2-(furo[3,2-c]pyridin-2-ylsulfonylamino)-N-[[2-[2-hydroxy-4-(trifluoromethyl)phenyl]-4-pyridyl]methyl]propanamide], the 50% inhibitory concentration (IC50) is 42 nM.

For `C[C@H](NS(=O)(=O)c1cc2cnccc2o1)C(=O)NCc1cc(-c2ccc(C(F)(F)F)cn2)ccn1` [Example 304, (2S)-2-(furo[3,2-c]pyridin-2-ylsulfonylamino)-N-[[4-[5-(trifluoromethyl)-2-pyridyl]-2-pyridyl]methyl]propanamide], the IC50 turned out to be 350 nM.

As to `C[C@H](NS(=O)(=O)c1cc2cnccc2o1)C(=O)NCc1cc(-c2ccc(OC(F)(F)F)cc2)ncn1` [Example 305, (2S)-2-(furo[3,2-c]pyridin-2-ylsulfonylamino)-N-[[6-[4-(trifluoromethoxy)phenyl]pyrimidin-4-yl]methyl]propanamide], the IC50 came to 26 nM.

On to `O=C(NCc1cc(-c2ccc(OC(F)(F)F)cc2)ncn1)[C@@H]1CCCN1S(=O)(=O)c1cc2cnccc2o1` [Example 306, (2S)-1-furo[3,2-c]pyridin-2-ylsulfonyl-N-[[6-[4-(trifluoromethoxy)phenyl]pyrimidin-4-yl]methyl]pyrrolidine-2-carboxamide], for which the IC50 amounted to 2.8 nM.

On to `O=C(NCc1ccc(F)c(-c2ccc(C(F)(F)F)cc2)c1)[C@@H]1CCCN1S(=O)(=O)c1cc2ccccc2o1` [Example 307, (2S)-1-(benzofuran-2-ylsulfonyl)-N-[[4-fluoro-3-[4-(trifluoromethyl)phenyl]phenyl]methyl]pyrrolidine-2-carboxamide], for which the IC50 worked out at 1.7 nM.

As to `O=C(NCc1ccc(F)c(-c2ccc(C(F)(F)F)cc2O)c1)[C@@H]1CCCN1S(=O)(=O)c1cc2ccccc2o1` [Example 308], the 50% inhibitory concentration (IC50) came to 360 nM.

On to `O=C(NCc1ccc(F)c(-c2ccc(C(F)(F)F)cn2)c1)[C@@H]1CCCN1S(=O)(=O)c1cc2ccccc2o1` [Example 309, (2S)-1-(benzofuran-2-ylsulfonyl)-N-[[4-fluoro-3-[5-(trifluoromethyl)-2-pyridyl]phenyl]methyl]pyrrolidine-2-carboxamide], for which the IC50 was 10 nM.

Regarding `COc1cc(CNC(=O)[C@@H]2CCCN2S(=O)(=O)c2cc3ccccc3o2)cc(-c2ccc(C(F)(F)F)nc2)c1` [Example 310, (2S)-1-(benzofuran-2-ylsulfonyl)-N-[[3-methoxy-5-[6-(trifluoromethyl)-3-pyridyl]phenyl]methyl]pyrrolidine-2-carboxamide], the IC50 is 2.5 nM.

In the case of `CC(C)COc1nc(CNC(=O)[C@@H]2CCCN2S(=O)(=O)c2cc3ccccc3o2)cc(-c2ccc(C(F)(F)F)cc2)n1` [Example 311, (2S)-1-(benzofuran-2-ylsulfonyl)-N-[[2-isobutoxy-6-[4-(trifluoromethyl)phenyl]pyrimidin-4-yl]methyl]pyrrolidine-2-carboxamide], the IC50 was 3.7 nM.

For `CN(C)c1nc(CNC(=O)[C@@H]2CCCN2S(=O)(=O)c2cc3ccccc3o2)cc(-c2ccc(C(F)(F)F)cc2)n1` [Example 312, (2S)-1-(benzofuran-2-ylsulfonyl)-N-[[2-(dimethylamino)-6-[4-(trifluoromethyl)phenyl]pyrimidin-4-yl]methyl]pyrrolidine-2-carboxamide], the IC50 turned out to be 5.3 nM.

Consider `CC#CCN([C@@H](C)C(=O)NCc1ccnc(-c2ccc(C(F)(F)F)nc2)c1)S(=O)(=O)c1cc2cc(F)ccc2o1` [Example 313, (2S)-2-[but-2-ynyl-(5-fluorobenzofuran-2-yl)sulfonyl-amino]-N-[[2-[6-(trifluoromethyl)-3-pyridyl]-4-pyridyl]methyl]propanamide], for which the IC50 was determined as 37 nM.
